Assay results taken from patent publication US11872225B2, “Pyruvate kinase modulators and use thereof” (Agios Pharmaceuticals, Inc., priority 2017, dated 2024).

How the values were obtained:
wild type PKM2 = wild type PKM2 (Homo sapiens, UniProt P14618); assay: PKM2 Assay (LDH/NADH-coupled, absorbance at 340 nm); assay type: biochemical; conditions: wild type PKM2 activation; 60 min preincubation at 25° C.; ADP 0.4 mM, PEP 0.11 mM; read-out: PKM2 WT AC50
Experimental: A compound described herein may be tested for its ability to activate PKM2. For simplicity, the activation activity of these compounds is represented as an AC50 in Table 2. In Tables 2, a compound described herein may have an AC50 of wild type PKM2.
PKM2 enzyme stock solution was diluted to prepare a 1.11× Reaction Mix (without ADP). 1 μL of test compound was first added to the wells followed by 40 μL of 1.11× Reaction Mix (without ADP) and incubated at room temperature (25° C.) for 60 min. The reaction was initiated with 10 μL ADP (0.4 mM final concentration), bringing the final Reaction Mix to 1×, and the reaction progress was measured as changes in absorbance at 340 nm wavelength at room temperature.
Test compound preparation: Test compounds were prepared at 50× final concentration in DMSO. 1 to 3 dilutions were made for 11 points (for example 50 μL of 5000 μM compound was added to 100 μL 100% DMSO to yield a 1667 μM, 50 μL of this added to 100 μL DMSO to yield 556 μM, and so forth). The compounds were added to the assay as a 1 to 50 dilution (1 μL in 50 μL) to yield a top concentration of 100 μM, decreasing 3-fold for 11 points.
Reaction Mix: PKM2 (5 ng/well, 0.1 μg/ml), ADP (0.4 mM), PEP (0.11 mM), NADH (180 μM), LDH (0.005 U/μL, Sigma #L3888), 1 mM DTT, 0.03% BSA in 1× Reaction Buffer
Reaction Buffer: 100 mM KCl, 50 mM Tris pH 7.5, 5 mM MgCl2.

PKM2 = PKM2 (Mus musculus, UniProt P52480); conditions: in vivo, LPS; cited from earlier work
Chain of PKM2 (P52480 whole entry): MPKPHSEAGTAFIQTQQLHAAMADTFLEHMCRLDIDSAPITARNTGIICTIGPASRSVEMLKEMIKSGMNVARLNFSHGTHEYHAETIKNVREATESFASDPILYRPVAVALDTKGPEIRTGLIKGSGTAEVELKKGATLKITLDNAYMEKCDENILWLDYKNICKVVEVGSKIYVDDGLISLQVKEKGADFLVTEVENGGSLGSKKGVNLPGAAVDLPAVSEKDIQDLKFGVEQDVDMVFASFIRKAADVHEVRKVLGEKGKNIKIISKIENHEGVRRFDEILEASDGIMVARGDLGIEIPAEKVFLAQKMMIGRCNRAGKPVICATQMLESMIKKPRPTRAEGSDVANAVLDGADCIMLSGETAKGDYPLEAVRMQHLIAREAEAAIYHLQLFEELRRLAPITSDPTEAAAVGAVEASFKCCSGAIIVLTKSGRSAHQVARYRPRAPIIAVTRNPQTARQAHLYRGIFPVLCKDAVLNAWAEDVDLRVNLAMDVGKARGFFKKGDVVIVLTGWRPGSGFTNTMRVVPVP

Chain of wild type PKM2 (P14618 whole entry): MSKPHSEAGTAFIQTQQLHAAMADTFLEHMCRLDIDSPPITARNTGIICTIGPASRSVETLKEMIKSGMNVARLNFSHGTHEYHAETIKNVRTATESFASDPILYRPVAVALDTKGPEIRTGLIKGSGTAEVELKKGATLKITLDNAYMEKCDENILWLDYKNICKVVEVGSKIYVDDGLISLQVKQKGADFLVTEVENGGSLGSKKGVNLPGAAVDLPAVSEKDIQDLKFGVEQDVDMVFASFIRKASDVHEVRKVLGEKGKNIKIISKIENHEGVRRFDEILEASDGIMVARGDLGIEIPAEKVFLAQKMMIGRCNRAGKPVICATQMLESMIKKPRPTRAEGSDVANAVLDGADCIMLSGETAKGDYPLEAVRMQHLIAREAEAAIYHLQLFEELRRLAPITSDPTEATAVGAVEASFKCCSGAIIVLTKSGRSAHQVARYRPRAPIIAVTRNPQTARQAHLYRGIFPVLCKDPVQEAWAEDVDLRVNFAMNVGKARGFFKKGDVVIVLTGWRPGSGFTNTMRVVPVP

| SMILES | AC50 (wild type PKM2) | also measured |
| --- | --- | --- |
| Cn1c2nc(Cc3cc[nH]c(=O)c3)sc2c2cnn(Cc3cccc4[nH]ncc34)c(=O)c21 [Compound 76] | < 300 nM | – |
| Cn1c2nc(Cc3cc[nH]n3)sc2c2cnn(Cc3cccc4nn[nH]c34)c(=O)c21 [Compound 77] | < 300 nM | – |
| Cn1c2nc(Cc3cc[nH]n3)sc2c2cnn(Cc3nccs3)c(=O)c21 [Compound 78] | < 300 nM | – |
| Cn1c2nc(Cc3csc(C(N)=O)n3)sc2c2cnn(Cc3cccc4[nH]ncc34)c(=O)c21 [Compound 79] | > 800 nM | – |
| COc1ncc(Cc2nc3c(s2)c2cnn(Cc4cccc5[nH]ncc45)c(=O)c2n3C)cn1 [Compound 80] | < 300 nM | – |
| Cn1c2nc(Cc3cnc(O)nc3)sc2c2cnn(Cc3cccc4[nH]ncc34)c(=O)c21 [Compound 81] | > 800 nM | – |
| Cn1c2nc(Cc3ccns3)sc2c2cnn(Cc3cccc4[nH]ncc34)c(=O)c21 [Compound 82] | 301 to 800 nM | – |
| Cn1ccc(Cn2ncc3c4sc(Cc5cc[nH]n5)nc4n(C)c3c2=O)n1 [Compound 83] | < 300 nM | – |
| Cn1c2nc(Cc3cc[nH]n3)sc2c2cnn(Cc3cccc4c3CCN4)c(=O)c21 [Compound 85] | < 300 nM | – |
| Cn1c2nc(Cc3cnn[nH]3)sc2c2cnn(Cc3cccc4[nH]ncc34)c(=O)c21 [Compound 86] | < 300 nM | – |
| Cn1c2nc(Cc3cc[nH]n3)sc2c2cnn(Cc3cscn3)c(=O)c21 [Compound 87] | < 300 nM | – |
| Cn1c2nc(Cc3cc[nH]n3)sc2c2cnn(Cc3ccc4scnc4c3)c(=O)c21 [Compound 88] | < 300 nM | – |
| Cn1c2nc(Cc3cc[nH]n3)sc2c2cnn(Cc3c[nH]nn3)c(=O)c21 [Compound 89] | < 300 nM | – |
| Cn1c2nc(Cc3csc(CO)n3)sc2c2cnn(Cc3cc[nH]n3)c(=O)c21 [Compound 90] | < 300 nM | – |
| Cn1c2nc(Cc3ccccn3)sc2c2cnn(Cc3nccs3)c(=O)c21 [Compound 91] | < 300 nM | – |
| Cn1c2nc(Cc3ccccn3)sc2c2cnn(Cc3cc[nH]n3)c(=O)c21 [Compound 92] | < 300 nM | – |
| Cn1c2nc(Cc3csc(CO)n3)sc2c2cnn(Cc3nccs3)c(=O)c21 [Compound 93] | < 300 nM | – |

| SMILES | AC50 (wild type PKM2) | also measured |
| --- | --- | --- |
| Cn1c2nc(Cc3cc[nH]n3)sc2c2cnn(Cc3ncns3)c(=O)c21 [Compound 94] | < 300 nM | – |
| Cn1c2nc(Cc3cc[nH]n3)sc2c2cnn(Cc3ncsc3C(F)(F)F)c(=O)c21 [Compound 95] | > 800 nM | – |
| Cn1ccc(Cn2ncc3c4sc(Cc5cscn5)nc4n(C)c3c2=O)n1 [Compound 96] | < 300 nM | – |
| Cn1c2nc(Cc3c[nH]nn3)sc2c2cnn(Cc3ccccc3)c(=O)c21 [Compound 97] | > 800 nM | – |
| Cn1c2nc(Cc3cc[nH]n3)sc2c2cnn(Cc3cccc4c3NS(=O)(=O)N4)c(=O)c21 [Compound 98] | 301 to 800 nM | – |
| Cn1c2nc(Cn3ccnc3)sc2c2cnn(Cc3cccc4[nH]ncc34)c(=O)c21 [Compound 99] | < 300 nM | – |
| Cn1c2nc(Cc3c[nH]nn3)sc2c2cnn(Cc3cc[nH]n3)c(=O)c21 [Compound 100] | < 300 nM | – |
| Cn1c2nc(Cc3cccc(N)n3)sc2c2cnn(Cc3cc[nH]n3)c(=O)c21 [Compound 101] | < 300 nM | – |
| Cn1c2nc(Cn3cnnc3)sc2c2cnn(Cc3cccc4[nH]ncc34)c(=O)c21 [Compound 102] | 301 to 800 nM | – |
| Cn1c2nc(Cc3cc[nH]n3)sc2c2cnn(Cc3[nH]ncc3Cl)c(=O)c21 [Compound 103] | < 300 nM | – |
| Cn1c2nc(Cc3c[nH]nn3)sc2c2cnn(Cc3cccc(N)n3)c(=O)c21 [Compound 104] | < 300 nM | – |
| Cn1c2nc(Cc3cc[nH]n3)sc2c2cnn(Cc3n[nH]cc3F)c(=O)c21 [Compound 105] | < 300 nM | – |
| Cn1c2nc(Cn3cnnc3)sc2c2cnn(Cc3cc[nH]n3)c(=O)c21 [Compound 106] | > 800 nM | – |
| Cn1c2nc(Cc3cc[nH]n3)sc2c2cnn(Cc3nc(N)ccc3F)c(=O)c21 [Compound 107] | < 300 nM | – |
| Cn1nncc1Cn1ncc2c3sc(Cc4cc[nH]n4)nc3n(C)c2c1=O [Compound 108] | < 300 nM | – |
| Cn1ccc(Cn2ncc3c4sc(Cc5cccc(N)n5)nc4n(C)c3c2=O)n1 [Compound 109] | < 300 nM | – |
| Cn1c2cc([S+](C)[O-])sc2c2cnn(Cc3cccc(N)c3)c(=O)c21 (centres unmarked) [TEPP-46] | – | IL-1β production (PKM2): inhibited LPS and IL-1β production; production of IL-10 (PKM2): boosting production of IL-10 |

Second part, led by results:

| AC50 (wild type PKM2) | SMILES | also measured |
| --- | --- | --- |
| < 300 nM | Cn1ccc(Cc2nc3c(s2)c2cnn(Cc4ccn[nH]4)c(=O)c2n3C)n1 [Compound 110] | – |
| < 300 nM | Cn1c2nc(Cc3n[nH]cc3F)sc2c2cnn(Cc3cc[nH]n3)c(=O)c21 [Compound 111] | – |
| < 300 nM | Cn1c2nc(Cc3ncsc3F)sc2c2cnn(Cc3cc[nH]n3)c(=O)c21 [Compound 112] | – |
| < 300 nM | Cn1ccc(Cn2ncc3c4sc(Cc5n[nH]cc5F)nc4n(C)c3c2=O)n1 [Compound 113] | – |
| > 800 nM | CCOC(c1cscn1)c1nc2c(s1)c1cnn(Cc3c[nH]nn3)c(=O)c1n2C (centres unmarked) [Compound 114] | – |
| < 300 nM | CC(=O)Nc1ccc(F)c(Cn2ncc3c4sc(Cc5cc[nH]n5)nc4n(C)c3c2=O)n1 [Compound 115] | – |
| > 800 nM | Cn1cc(C(N)=O)c(Cn2ncc3c4sc(Cc5cc[nH]n5)nc4n(C)c3c2=O)n1 [Compound 116] | – |
| > 800 nM | Cn1cc(C(=O)O)c(Cn2ncc3c4sc(Cc5cc[nH]n5)nc4n(C)c3c2=O)n1 [Compound 117] | – |
| 301 to 800 nM | Cn1c2nc(Cc3cc[nH]n3)sc2c2cnn(Cc3ccc(C#N)cn3)c(=O)c21 [Compound 118] | – |
| 301 to 800 nM | Cn1c2nc(Cc3cc[nH]n3)sc2c2cnn(Cc3ccc(C(N)=O)cn3)c(=O)c21 [Compound 119] | – |
| > 800 nM | COCc1cn(C)nc1Cn1ncc2c3sc(Cc4cc[nH]n4)nc3n(C)c2c1=O [Compound 120] | – |
| 301 to 800 nM | Cn1c2nc(Cc3n[nH]cc3F)sc2c2cnn(Cc3n[nH]cc3OC(F)(F)F)c(=O)c21 [Compound 121] | – |
| < 300 nM | Cn1ccc(Cn2ncc3c4sc(C(=O)c5cc[nH]n5)nc4n(C)c3c2=O)n1 [Compound 122] | – |
| < 300 nM | Cn1c2nc(C(=O)c3cc[nH]n3)sc2c2cnn(Cc3cccc(N)n3)c(=O)c21 [Compound 123] | – |
| 301 to 800 nM | Cn1cc(CN)c(Cn2ncc3c4sc(Cc5cc[nH]n5)nc4n(C)c3c2=O)n1 [Compound 124] | – |
| > 800 nM | Cn1cc(CC(N)=O)c(Cn2ncc3c4sc(Cc5cc[nH]n5)nc4n(C)c3c2=O)n1 [Compound 125] | – |
| < 300 nM | Cn1c2nc(Cc3cc[nH]n3)sc2c2cnn(CCc3cccc(N)n3)c(=O)c21 [Compound 126] | – |
| 301 to 800 nM | CC(=O)Nc1ccc(F)c(Cn2ncc3c4sc(Cc5cnn(C)c5)nc4n(C)c3c2=O)n1 [Compound 127] | – |

| AC50 (wild type PKM2) | SMILES | also measured |
| --- | --- | --- |
| < 300 nM | Cn1cc(Cc2nc3c(s2)c2cnn(Cc4cccc(C(N)=O)c4)c(=O)c2n3C)cn1 [Compound 128] | – |
| < 300 nM | Cn1c2nc(Cn3ccnc3)sc2c2cnn(Cc3cccc(C(N)=O)c3)c(=O)c21 [Compound 129] | – |
| > 800 nM | CC(=O)Nc1ccc(F)c(Cn2ncc3c4sc(Cn5ccnc5)nc4n(C)c3c2=O)n1 [Compound 130] | – |
| 301 to 800 nM | Cn1c2nc(Cc3cc[nH]n3)sc2c2cnn(Cc3n[nH]c(=O)[nH]3)c(=O)c21 [Compound 131] | – |
| < 300 nM | Cn1c2nc(Cc3cc[nH]n3)sc2c2cnn(Cc3coc(C(N)=O)n3)c(=O)c21 [Compound 132] | – |
| > 800 nM | C=CCn1ncc2c3sc(Cc4ccccn4)nc3n(C)c2c1=O [Compound 133] | – |
| < 300 nM | Cn1c2nc(Cc3cc[nH]n3)sc2c2cnn(Cc3ccnc(N)n3)c(=O)c21 [Compound 134] | – |
| < 300 nM | Cn1c2nc(Cc3cc[nH]n3)sc2c2cnn(Cc3nccc(N)n3)c(=O)c21 [Compound 135] | – |
| 301 to 800 nM | Cn1c2nc(Cc3cc[nH]n3)sc2c2cnn(CCc3cccnc3)c(=O)c21 [Compound 136] | – |
| 301 to 800 nM | Cn1ccc(CCn2ncc3c4sc(Cc5cccnc5)nc4n(C)c3c2=O)n1 [Compound 137] | – |
| > 800 nM | CCn1c2nc(Cc3cc[nH]n3)sc2c2cnn(Cc3ccccc3)c(=O)c21 [Compound 138] | – |
| > 800 nM | Cn1c2nc(Cc3ccccn3)sc2c2cnn(CC3CCOCC3)c(=O)c21 [Compound 139] | – |
| > 800 nM | O=c1c2c(cnn1Cc1ccccc1)c1sc(Cc3ccccn3)nc1n2-c1ccccc1 [Compound 140] | – |
| > 800 nM | Cn1ccc(Cn2ncc3c4sc(CCc5cccnc5)nc4n(C)c3c2=O)n1 [Compound 141] | – |
| > 800 nM | O=c1c2c(cnn1Cc1ccccc1)c1sc(Cc3cc[nH]n3)nc1n2Cc1ccccc1 [Compound 142] | – |
| > 800 nM | Cn1c2nc(Cn3cncn3)sc2c2cnn(Cc3ccnc(N)n3)c(=O)c21 [Compound 143] | – |
| > 800 nM | Cn1c2nc(Cn3ccnc3)sc2c2cnn(Cc3ccnc(N)n3)c(=O)c21 [Compound 144] | – |
| > 800 nM | Cn1c2nc(Cn3cncn3)sc2c2cnn(Cc3n[nH]c(=O)[nH]3)c(=O)c21 [Compound 145] | – |
